Measured values as given in US7838049B2, “Extracts and compounds for inhibiting tyrosinase activity” (Taipei Medical University, priority 2009, dated 2010).

Columns and labels:
tyrosinase [1] = target: T1, tyrosinase (Homo sapiens, UniProt P14679); test: Assay of tyrosinase activity in human melanocyte (HEMn) cells; assay type: cell-based; conditions: for inhibitory activity on tyrosinase: HEMn cells treated 24 hours, lysate reacted with L-DOPA, OD475 vs control, FIG. 1 and FIG. 2
T1 construct: Lysis buffer (1% Triton X-100, 1 mM phenylmethylsulfonyl fluoride (PMSF), 1 μg/ml aprotinin, and 10 μg/ml leupeptin) was added to the resulting cells to obtain the cell proteins; host or cells: HEMn human melanocytes, passages 3 to 10
T1 sequence (P14679 19-529): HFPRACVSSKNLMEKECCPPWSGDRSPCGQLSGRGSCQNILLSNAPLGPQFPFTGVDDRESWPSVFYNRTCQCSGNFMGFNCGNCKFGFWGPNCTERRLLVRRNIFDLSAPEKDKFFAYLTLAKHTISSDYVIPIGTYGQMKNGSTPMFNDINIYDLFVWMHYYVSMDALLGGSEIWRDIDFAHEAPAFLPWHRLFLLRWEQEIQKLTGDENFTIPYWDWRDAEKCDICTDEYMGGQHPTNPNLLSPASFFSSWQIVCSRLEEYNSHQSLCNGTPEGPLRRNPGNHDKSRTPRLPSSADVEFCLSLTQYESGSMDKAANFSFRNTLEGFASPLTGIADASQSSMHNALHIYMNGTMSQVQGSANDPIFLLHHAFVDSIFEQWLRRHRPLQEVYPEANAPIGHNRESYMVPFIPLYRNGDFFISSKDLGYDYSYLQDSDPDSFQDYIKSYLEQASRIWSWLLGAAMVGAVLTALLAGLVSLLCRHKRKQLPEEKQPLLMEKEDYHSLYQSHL
Method: Human melanocyte (HEMn) cells are cultured with medium 254 containing antibiotics and growth factors (Cascade Biologics, Inc., Portland, Oreg., USA) in an incubator with 5% CO2 for serial passage. Passages 3 to 10 of the HEMn cells were used in the experiments below.
HEMn cells were further cultured for 48 hours and then the ethyl acetate extract of the invention and the test compounds (MHL-1: 3,4-dihydroxy-5-methoxybiphenyl-2′-O-β-d-glucopyranoside and MHL-2: 3,6-dihydroxy-2,4-dimethoxy-dibenzofuran) were added. After 24 hours, the cells were washed with PBS buffer. Lysis buffer (1% Triton X-100, 1 mM phenylmethylsulfonyl fluoride (PMSF), 1 μg/ml aprotinin, and 10 μg/ml leupeptin) was added to the resulting cells to obtain the cell proteins. The cell proteins were kept at −80° C. Subsequently, the cell proteins were thawed and then centrifuged at 12,000 rpm for 5 minutes. The supernatant was taken for determination of the amount of protein by BCA protein assay. The proteins with different concentrations were added to a 96-well microplate and then PBS buffers were added. L-DOPA was added to the microplate to react with the protein at 37° C. for 1 hour. The absorbance of the solution at 475 nm wavelength was detected. Tyrosinase activity (%)=(OD475 of the sample/OD475 of control)×100.
Arbutin as positive control and 1% DMSO as blank were used in the tyrosinase activity assay stated above. […] MHL-1 and MHL-2 inhibit around 40% and 20% tyrosinase activity, respectively. The ethyl acetate extract and the compounds of the invention are effective in inhibiting tyrosinase.

tyrosinase [2] = target: T1, tyrosinase; test: Tyrosinase oxidative activity analysis by L-Dopa staining of SDS-PAGE gels; assay type: cell-based; conditions: HEMn cells treated with 100, 80 and 60 μM of MHL-1; FIG. 3
Method: The compound of the invention, MHL-1, with different concentrations was added to HEMn cells. The lysis of HEMn cells, isolation of cell proteins and BCA protein assay were performed on the supernatant obtained as stated in Example 1 so that the amount of the protein could be determined. 10% SDS-polyacrylamide gel electrophoresis (dd-H2O; 10% Acrylamide mix; 1.5M Tris-base pH8.8; 10% SDS; 10% Ammonium persulfate; TEMED) was performed on the resulting protein and the sample buffer (60 mM Tris-HCl, pH 6.8, 2% sodium dodecyl sulfate (SDS), 10% glycerol, 0.01% bromophenol blue) at the same time. The molecular weight of tyrosinase was about 72 kDa. The resulting gels were washed with 0.1 M of PBS (pH 6.8) for 30 minutes and then the protein at the position of 72 kDa reacted with 5 mM L-DOPA in 0.1 M PBS at 37° C. for 1 hour. After the reaction, Quantity One 1-D software was used to determine the amount of protein.

inhibitory activity on tyrosinase (tyrosinase [1])	tyrosinase inhibitory activity compared with arbutin (positive control) (tyrosinase [1]; HEMn cells, FIG. 2)	Structure (SMILES)	tyrosinase oxidative activity (L-DOPA staining of the 72 kDa band) (tyrosinase [2])
~20%	–	COc1cc2c(oc3c(O)cccc32)c(OC)c1O [MHL-2, 3,6-dihydroxy-2,4-dimethoxy-dibenzofuran]	–
around 40%	superior activity compared to arbutin	COc1cc(-c2ccccc2OC2OC(CO)C(O)C(O)C2O)cc(O)c1O [MHL-1, 3,4-dihydroxy-5-methoxybiphenyl-2′-O-β-D-glucopyranoside]	the higher the concentration of MHL-1, the lower the tyrosinase oxidative activity
